How the values were obtained:
[1] = tested on: 65 human olfactory receptors; experiment: Screening against the set of 65 human olfactory receptors (CRE-luciferase); type: cell-based; conditions: 10 µM; including negative control receptor hTAS2R16
Experimental: The experiments were performed using a HEK293 cell line (deposited at the ATCC under accession n° CRL-1573) stably expressing the Gαolf G-protein and the cyclic nucleotide gated ion channel A2 subunit (CNGA2) (herein called HEKOlf). As described by Shirokova et al., 2005, the human Gαolf cDNA was cloned into the mammalian expression vector pPuro and cDNA for the bovine cyclic nucleotide gated ion channel A2 (CNGA2) subunit was cloned into the mammalian expression vector pcDNA3. Both constructs were transfected using Lipofectamine2000 (Invitrogen) following the manufacturer's instructions. Cellular clones stably expressing Gαolf and CNGA2 were obtained by antibiotic selection with 0.5µg/ml Puromycin and 200µg/ml Geneticin. […]
(§1) In this assay, the interaction of an odorant with its cognate olfactory receptor leads to the activation of the human Gαolf G-protein. […] The cells were then transferred into an automated fluorometric imaging plate reader (FLIPR^TETRA, Molecular Devices). […]
(§2) The data obtained from different well replicates were analyzed with Excel, ScreenWorks, and SigmaPlot 10. […] The mean and standard deviation of the resulting fold of change values were calculated and plotted in vertical bar charts or concentration-response curves fitted by the SigmaPlot 10 software. […]

OR7D4 = molecular target: T1, OR7D4 (Homo sapiens, UniProt Q8NG98); experiment: CRE-luciferase reporter assay, positive control receptor OR7D4; type: cell-based; conditions: 10 µM
T1 construct: expressed in transfected cells; host or cells: HEKOlf (HEK293 stably expressing human Galpha-olf and bovine CNGA2)
T1 sequence (Q8NG98 1-312): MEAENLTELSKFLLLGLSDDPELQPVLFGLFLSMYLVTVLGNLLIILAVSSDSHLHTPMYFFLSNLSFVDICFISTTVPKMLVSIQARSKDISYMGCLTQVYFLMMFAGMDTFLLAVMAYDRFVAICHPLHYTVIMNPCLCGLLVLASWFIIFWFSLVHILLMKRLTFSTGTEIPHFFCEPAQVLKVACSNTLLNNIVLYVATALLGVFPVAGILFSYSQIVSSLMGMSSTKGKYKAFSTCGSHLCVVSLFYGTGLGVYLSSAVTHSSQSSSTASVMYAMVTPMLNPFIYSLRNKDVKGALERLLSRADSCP
Experimental: The experiments were performed using a HEK293 cell line (deposited at the ATCC under accession n° CRL-1573) stably expressing the Gαolf G-protein and the cyclic nucleotide gated ion channel A2 subunit (CNGA2) (herein called HEKOlf). As described by Shirokova et al., 2005, the human Gαolf cDNA was cloned into the mammalian expression vector pPuro and cDNA for the bovine cyclic nucleotide gated ion channel A2 (CNGA2) subunit was cloned into the mammalian expression vector pcDNA3. Both constructs were transfected using Lipofectamine2000 (Invitrogen) following the manufacturer's instructions. Cellular clones stably expressing Gαolf and CNGA2 were obtained by antibiotic selection with 0.5µg/ml Puromycin and 200µg/ml Geneticin.
All transient transfections were performed with Lipofectamine 2000 (Invitrogen) according to the manufacturer's protocol. […]
as §1, §2

For `C[C@]12CCC(=O)C[C@@H]1CC[C@@H]1[C@@H]2CC[C@]2(C)C=CC[C@@H]12` [androstenone], the “response of the 65 olfactory receptors tested” value [1] was “did not respond” and the “activation of OR7D4” value (OR7D4) was “robustly activated”.

From EP2832347B1, “Method for identifying patchouli odorant materials” (Takasago International Corporation, priority 2013, dated 2015)
